The results in this text go back to patent US8362018B2, “Substituted imidazo[1,2-a]pyrazine compounds useful for the treatment of viral infections” (Biofocus DPI, Ltd., priority 2007, dated 2013).

One data set concerns HCV replicon. In words: anti-viral assay (EC50), Table 13. The format is cell-based. Particulars: anti-viral assays. The source says:
The ability of a compound to inhibit HCV replication can be measured in vitro or using animal models using models and assays well known to those of skill in the art (e.g. Pietschmann et al, Clin Liver Dis. 7(1)c23-43, 2003). In vitro techniques for measuring the ability of a compound to inhibit HCV replication involve using HCV or an HCV replicon. Because HCV is difficult to grow in culture, particular in vitro techniques employ an HCV replicon.
An HCV replicon is an RNA molecule able to autonomously replicate in a cultured cell, such as Huh7. The HCV replicon expresses the HCV derived components of the replication machinery and contains cis-elements required for replication in a cultured cell. […]

A short description of data set [1]: cytotoxicity measurement (CC50), Table 13. In kind it is cell-based. As to conditions: human, Huh7 cells.
A further data set deals with HCV. In words: antiviral profiling, HCV in Huh7 cells (Table 14). The format is cell-based. Particulars: Hepatitis C virus, Huh-7.
In the next data set the test system is CVB-2. In words: antiviral profiling, CVB-2 in Vero cells (Table 14). In kind it is cell-based, coxsackie B virus.
Another data set has as its system Sb-1. In words: microbe, parasite or virus in culture. In kind it is cell-based, poliovirus. Particulars: Enterovirus C, Vero.
A further data set concerns YFV. In words: microbe, parasite or virus in culture. The format is cell-based. Particulars: Yellow fever virus, BHK-21.
The next data set relates to Influenza. In words: antiviral profiling, Influenza in MDCK cells (Table 14). The format is cell-based.
A further data set has as its system RSV. In words: antiviral profiling, RSV in Vero cells (Table 14). As to conditions: human respiratory syncytial virus. The format is cell-based.
For the next data set, the system named is VSV. Put plainly: microbe, parasite or virus in culture. As to conditions: Vesicular stomatitis virus, Vero. The format is cell-based.
The test system of the next data set is HSV-1. Put plainly: antiviral profiling, HSV-1 in Vero cells (Table 14). Particulars: Human alphaherpesvirus 1; HSV-1, Vero cells. The format is cell-based.
In a further data set the test system is HIV. In words: antiviral profiling, HIV in MT-4 cells (Table 14). In kind it is cell-based. Particulars: Human immunodeficiency virus 1, MT4.
Data set [2] in a line: cytotoxicity CC50 in Huh7 cells (Table 14). In kind it is cell-based. As to conditions: human, HCV column.
The nature of data set [3]: cytotoxicity CC50 in MT-4 cells (Table 14). The format is cell-based. As to conditions: human, HIV column.
For the next data set, the system named is HRV-2. In words: antiviral activity, HRV-2 in HeLa cells (Table 15). The format is cell-based, human rhinoviruses (HRV). Particulars: Rhinovirus A, HRV2; HRV-2 (HeLa cells).
The test system of the next data set is HRV-14. In words: antiviral activity, HRV-14 in HeLa cells (Table 15). As to conditions: Rhinovirus B, HRV14; HRV-14 (HeLa cells). The format is cell-based, human rhinovirus 14 (HRV-14).
The subject of a further data set is HRV clinical isolate. Put plainly: antiviral activity, HRV clinical isolate in HeLa cells (Table 15). In kind it is cell-based, human rhinoviruses (HRV). As to conditions: Enterovirus.
Data set [4] can be described thus: cytotoxicity CC50 in HeLa cells (Table 15). Particulars: human, HRV-2 column. The format is cell-based.
The test system of another data set is HeLa cells. In words: cytotoxicity CC50 in HeLa cells (Table 15). In kind it is cell-based.
Data set [5] is described as follows: in vitro. As to conditions: African green monkey.
Data set [6] can be described thus: in vitro. As to conditions: Syrian hamster.
The subject of a further data set is Vero. In words: cytotoxicity CC50 in Vero cells (Table 14).
A short description of data set [7]: cytotoxicity CC50 in MDCK cells (Table 14). Particulars: dog.
For the next data set, the system named is Huh7. Put plainly: cytotoxicity measurement (CC50), Table 13. The format is cell-based.

A value given as a limit tells only on which side of the number the result lay.

Regarding `NS(=O)(=O)c1ccc(CNc2nccn3c(-c4ccc(O)cc4)cnc23)cc1` [Compound 1, 4-{[3-(4-Hydroxy-phenyl)-imidazol[1,2-a]pyrazin-8-ylamino]-methyl}-benzenesulfonamide], the concentration giving a half-maximal response (EC50) with HCV replicon (Hepatitis C virus) was < 1 µM; in the data set with HCV it was < 1 µM; with CVB-2 it was < 1 µM; with Sb-1 it was < 1 µM; with YFV, 1 to 20 µM; in the data set with Influenza, > 20 µM. Moreover, the EC50 is > 20 µM in the data set on RSV; > 20 µM in the data set on VSV; > 20 µM in the data set with HSV-1; 1 to 20 µM in the data set with HIV; < 1 µg/mL in the data set with HRV-2; < 1 µg/mL with HRV-14. In addition, in the data set on HRV clinical isolate, the EC50 is < 1 µg/mL. For the same compound, the CC50 is > 35 µM in data set [1]; > 35 µM in [2]; < 35 µM in data set [3]; > 35 µg/mL in [4]; > 35 µM in the data set “in vitro [5]”; > 35 µM in the data set “in vitro [5]” (Vero cells). The CC50 is < 35 µM in “in vitro [6]”; > 35 µM in the data set on Vero (HSV-1); > 35 µM with Vero (RSV column); > 35 µM in the data set with Vero (Sb-1 column); > 35 µM in data set [7]. Besides, the “CC50(μg/mL)” value in the data set on HeLa cells (HRV clinical isolate column) and with HeLa cells (HRV-14 column) was “* (>35 μg/mL)” in each case.
Compound `NS(=O)(=O)c1cccc(CNc2nccn3c(-c4ccc(O)cc4)cnc23)c1` [Compound 95, 3-{[3-(4-Hydroxy-phenyl)-imidazol[1,2-a]pyrazin-8-ylamino]-methyl}-benzenesulfonamide] returned an EC50 in the data set with HCV replicon of 1 to 20 µM. For the same compound, the CC50 with Huh7 was < 35 µM.
For `Cc1nc2c(NCc3ccc(S(N)(=O)=O)cc3)nccn2c1-c1ccc(O)c(F)c1` [Compound 106], the EC50 with HCV replicon (Hepatitis C virus) was < 1 µM; with HRV-2, < 1 µg/mL; in the data set with HRV-14, < 1 µg/mL; in the data set on HRV clinical isolate it was < 1 µg/mL. In addition, the CC50 in data set [1] was > 35 µM; in [4] it was > 35 µg/mL. Further, the “CC50(μg/mL)” value with HeLa cells (HRV clinical isolate column) and in the data set on HeLa cells (HRV-14 column) was “* (>35 μg/mL)” throughout.
